Measured values: ChEMBL document CHEMBL4321809, “Structure-Reactivity Relationships on Substrates and Inhibitors of the Lysine Deacylase Sirtuin 2 from Schistosoma mansoni (SmSirt2)” (J Med Chem, 2019)
pIC50: −log10 of the molar value. Activity calls are given as the source filed them. The calls are words filed in the database; no cut-off is given here.

Key:
[1] = biological target: T1, NAD-dependent protein deacetylase sirtuin-2 (Homo sapiens, UniProt Q8IXJ6); assay: Inhibition of N-terminal His6 tagged human sirtuin 2 (25 to 389 residues) assessed as inhibition of substrate demyristoylation using (Z)-(Myr)-Lys-AMC as susbtrate after 4 hrs in presence of NAD+ by homogeneous fluorescence based analysis
T1 sequence (Q8IXJ6 whole entry): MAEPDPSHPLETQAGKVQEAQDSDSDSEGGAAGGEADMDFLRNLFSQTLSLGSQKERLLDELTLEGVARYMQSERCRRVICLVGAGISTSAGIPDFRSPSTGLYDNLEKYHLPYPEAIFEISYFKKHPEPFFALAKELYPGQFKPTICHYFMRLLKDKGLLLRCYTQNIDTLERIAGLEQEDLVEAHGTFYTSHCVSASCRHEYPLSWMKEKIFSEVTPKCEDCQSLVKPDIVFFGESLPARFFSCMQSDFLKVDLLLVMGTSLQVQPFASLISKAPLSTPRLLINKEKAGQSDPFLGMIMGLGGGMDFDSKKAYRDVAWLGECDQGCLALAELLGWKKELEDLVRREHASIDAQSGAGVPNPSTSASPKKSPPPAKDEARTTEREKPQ

[2] = biological target: T2, NAD-dependent protein deacetylase (Schistosoma mansoni, UniProt T1VXA1); assay: Inhibition of recombinant Schistosoma mansoni sirtuin 2 (21 to 322 residues) expressed in Escherichia coli BL21(DE3) cells using ZMAL as substrate after 1 hr in presence of NAD+ by homogeneous fluorescence based analysis
T2 sequence (T1VXA1 whole entry): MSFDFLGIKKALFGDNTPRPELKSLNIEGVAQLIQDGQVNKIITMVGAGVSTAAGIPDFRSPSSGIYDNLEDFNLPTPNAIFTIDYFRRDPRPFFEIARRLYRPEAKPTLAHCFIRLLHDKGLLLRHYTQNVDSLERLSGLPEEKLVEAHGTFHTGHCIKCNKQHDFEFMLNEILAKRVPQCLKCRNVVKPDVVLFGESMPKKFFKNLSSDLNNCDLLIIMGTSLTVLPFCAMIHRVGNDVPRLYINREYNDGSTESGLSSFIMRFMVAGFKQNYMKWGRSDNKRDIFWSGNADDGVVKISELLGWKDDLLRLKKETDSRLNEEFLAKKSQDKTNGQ

Schistosoma mansoni [3] = assay: Antiparasitic activity against adult Schistosoma mansoni Puerto Rico assessed as reduction in egg laying at 10 to 20 uM after 24 hrs by microscopic analysis; assay type: functional, organism-based
[4] = biological target: T1, NAD-dependent protein deacetylase sirtuin-2; assay: Inhibition of N-terminal His6 tagged human sirtuin 2 (25 to 389 residues) using Cbz-Lys(acetyl)-AMC as substrate after 4 hrs in presence of NAD+ by homogeneous fluorescence based analysis
[5] = biological target: T3, NAD-dependent protein deacetylase (Schistosoma mansoni) (UniProt T1VXA1); assay: Inhibition of recombinant Schistosoma mansoni sirtuin 2 (21 to 322 residues) expressed in Escherichia coli BL21(DE3) cells assessed as inhibition of substrate demyristoylation at 20 uM using (Z)-(Myr)-Lys-AMC as susbtrate after 1 hr in presence of NAD+ by homogeneous fluorescence based analysis relative to control
T3 sequence (whole entry): T2 sequence (T1VXA1 whole entry)

Schistosoma mansoni [6] = assay: Antiparasitic activity against Schistosoma mansoni Puerto Rico assessed as reduction in parasite viability at 10 to 20 uM after 72 hrs by microscopic analysis; assay type: functional, organism-based
[7] = Selectivity ratio of IC50 for N-terminal His6 tagged human sirtuin 2 (25 to 389 residues) to IC50 for recombinant Schistosoma mansoni sirtuin 2 (21 to 322 residues) expressed in Escherichia coli BL21(DE3) cells
Schistosoma mansoni [8] = assay: Antiparasitic activity against adult Schistosoma mansoni Puerto Rico assessed as reduction in worm pairing at 10 to 20 uM after 24 hrs by microscopic analysis; assay type: functional, organism-based
[9] = biological target: T1, NAD-dependent protein deacetylase sirtuin-2; assay: Inhibition of N-terminal His6 tagged human sirtuin 2 (25 to 389 residues) assessed as inhibition of substrate demyristoylation at 20 uM using (Z)-(Myr)-Lys-AMC as susbtrate after 4 hrs in presence of NAD+ by homogeneous fluorescence based analysis relative to control
[10] = biological target: T3, NAD-dependent protein deacetylase (Schistosoma mansoni); assay: Inhibition of recombinant Schistosoma mansoni sirtuin 2 (21 to 322 residues) expressed in Escherichia coli BL21(DE3) cells at 25 uM using ZMAL as susbtrate after 1 hr in presence of NAD+ by homogeneous fluorescence based analysis relative to control
[11] = biological target: T1, NAD-dependent protein deacetylase sirtuin-2; assay: Inhibition of N-terminal His6 tagged human sirtuin 2 (25 to 389 residues) at 25 uM using Cbz-Lys(acetyl)-AMC as substrate after 4 hrs in presence of NAD+ by homogeneous fluorescence based analysis relative to control
[12] = biological target: T3, NAD-dependent protein deacetylase (Schistosoma mansoni); assay: Inhibition of recombinant Schistosoma mansoni sirtuin 2 (21 to 322 residues) expressed in Escherichia coli BL21(DE3) cells in presence of (Z)-(But)Lys-AMC
[13] = biological target: T3, NAD-dependent protein deacetylase (Schistosoma mansoni); assay: Inhibition of recombinant Schistosoma mansoni sirtuin 2 (21 to 322 residues) expressed in Escherichia coli BL21(DE3) cells in presence of (Z)-(Dec)Lys-AMC
[14] = biological target: T3, NAD-dependent protein deacetylase (Schistosoma mansoni); assay: Inhibition of recombinant Schistosoma mansoni sirtuin 2 (21 to 322 residues) expressed in Escherichia coli BL21(DE3) cells in presence of ZMAL
[15] = biological target: T3, NAD-dependent protein deacetylase (Schistosoma mansoni); assay: Inhibition of recombinant Schistosoma mansoni sirtuin 2 (21 to 322 residues) expressed in Escherichia coli BL21(DE3) cells in presence of (Z)-(Oct)Lys-AMC
[16] = biological target: T2, NAD-dependent protein deacetylase; assay: Inhibition of recombinant Schistosoma mansoni sirtuin 2 (21 to 322 residues) expressed in Escherichia coli BL21(DE3) cells assessed as inhibition of substrate deacetylation using ZMAL as substrate
[17] = biological target: T3, NAD-dependent protein deacetylase (Schistosoma mansoni); assay: Inhibition of recombinant Schistosoma mansoni sirtuin 2 (21 to 322 residues) expressed in Escherichia coli BL21(DE3) cells in presence of (Z)-(Hex)Lys-AMC
[18] = biological target: T1, NAD-dependent protein deacetylase sirtuin-2; assay: Inhibition of human sirutin 2 assessed as inhibition of susbtrate demyristoylation at 20 uM using (Z)-(Myr)-Lys-AMC as substrate relative to control
[19] = biological target: T3, NAD-dependent protein deacetylase (Schistosoma mansoni); assay: Inhibition of recombinant Schistosoma mansoni sirtuin 2 (21 to 322 residues) expressed in Escherichia coli BL21(DE3) cells in presence of (Z)-(Lau)Lys-AMC
[20] = biological target: T2, NAD-dependent protein deacetylase; assay: Inhibition of recombinant Schistosoma mansoni sirtuin 2 (21 to 322 residues) expressed in Escherichia coli BL21(DE3) cells assessed as inhibition of substrate demyristoylation using (Z)-(Myr)-Lys-AMC as substrate
[21] = biological target: T3, NAD-dependent protein deacetylase (Schistosoma mansoni); assay: Inhibition of recombinant Schistosoma mansoni sirtuin 2 (21 to 322 residues) expressed in Escherichia coli BL21(DE3) cells in presence of (Z)-(Pal)Lys-AMC
[22] = biological target: T3, NAD-dependent protein deacetylase (Schistosoma mansoni); assay: Inhibition of recombinant Schistosoma mansoni sirtuin 2 (21 to 322 residues) expressed in Escherichia coli BL21(DE3) cells in presence of (Z)-(Myr)Lys-AMC
[23] = biological target: T4, NAD-dependent protein deacetylase sirtuin-1 (Homo sapiens, UniProt Q96EB6); assay: Inhibition of human sirtuin 1 at 500 uM relative to control
T4 sequence (Q96EB6 whole entry): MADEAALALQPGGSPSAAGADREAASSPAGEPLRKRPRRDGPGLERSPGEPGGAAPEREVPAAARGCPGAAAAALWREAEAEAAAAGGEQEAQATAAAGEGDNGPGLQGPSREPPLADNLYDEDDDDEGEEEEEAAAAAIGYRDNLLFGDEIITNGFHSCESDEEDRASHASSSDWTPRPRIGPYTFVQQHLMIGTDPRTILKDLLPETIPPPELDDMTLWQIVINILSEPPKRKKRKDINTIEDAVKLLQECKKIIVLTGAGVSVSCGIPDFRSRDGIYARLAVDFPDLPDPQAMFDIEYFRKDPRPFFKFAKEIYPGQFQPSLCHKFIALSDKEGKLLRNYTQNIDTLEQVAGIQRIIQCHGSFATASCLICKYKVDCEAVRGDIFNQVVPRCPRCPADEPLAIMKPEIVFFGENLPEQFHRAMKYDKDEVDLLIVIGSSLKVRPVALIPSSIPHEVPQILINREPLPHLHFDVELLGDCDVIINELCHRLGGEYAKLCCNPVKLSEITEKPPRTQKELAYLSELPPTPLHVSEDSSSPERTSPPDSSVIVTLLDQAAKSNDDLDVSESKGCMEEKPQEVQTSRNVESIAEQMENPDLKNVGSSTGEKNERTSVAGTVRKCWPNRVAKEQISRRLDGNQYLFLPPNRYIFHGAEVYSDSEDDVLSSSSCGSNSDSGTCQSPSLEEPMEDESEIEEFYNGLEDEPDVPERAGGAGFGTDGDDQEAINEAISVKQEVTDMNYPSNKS

[24] = biological target: T1, NAD-dependent protein deacetylase sirtuin-2; assay: Inhibition of N-terminal His6 tagged human sirtuin 2 (25 to 389 residues) at 50 uM using Cbz-Lys(acetyl)-AMC as substrate after 4 hrs in presence of NAD+ by homogeneous fluorescence based analysis relative to control
[25] = biological target: T2, NAD-dependent protein deacetylase; assay: Inhibition of recombinant Schistosoma mansoni sirtuin 2 (21 to 322 residues) expressed in Escherichia coli BL21(DE3) cells assessed as inhibition of substrate demyristoylation using (Z)-(Myr)-Lys-AMC as susbtrate after 1 hr in presence of NAD+ by homogeneous fluorescence based analysis
HL-60 = assay: Cytotoxicity against human HL60 cells at 10 uM after 72 hrs by Cell titer MTS dye based analysis; conditions: hl-60, 72 h

SMILES: COc1cc(OC)cc(Sc2ccc(C(c3ccccc3)N(C)c3ncc4c(N)nc(N)nc4n3)cc2)c1 (centres undefined)
- pIC50 [1]: 4.81
- pIC50 [2]: 5.70
- inhibition (Schistosoma mansoni [3]): Active
- pIC50 [4]: 4.67
- inhibition [5]: < 15%
- inhibition (Schistosoma mansoni [6]): Active
- Ratio IC50 [7]: 10
- inhibition (Schistosoma mansoni [8]): Active

SMILES: COc1ccc(C(=O)Nc2ccc(C(C)N(C)c3ncc4c(N)nc(N)nc4n3)cc2)cc1 (centres undefined)
- inhibition at 20 µM [9]: < 15%
- inhibition [10]: 41.9%
- inhibition at 25 µM [11]: < 15%
- inhibition [5]: < 15%

SMILES: NC(=O)c1cccnc1 [NIACINAMIDE]
- inhibition [12]: Active
- inhibition [13]: inactive
- inhibition [14]: Active
- inhibition [15]: Active
- pIC50 [16]: 4.64
- inhibition [17]: Active
- inhibition at 20 µM [18]: 8.7%
- inhibition [19]: inactive
- pIC50 [20]: 3.38
- inhibition [21]: inactive
- inhibition [22]: inactive
- inhibition at 500 µM [23]: 100%

SMILES: COc1ccc(Oc2ccc(C(C)N(C)c3ncc4c(N)nc(N)nc4n3)cc2)cc1 (centres undefined)
- inhibition at 50 µM [24]: 24.1%
- inhibition at 20 µM [9]: < 15%
- pIC50 [2]: 4.63
- inhibition (Schistosoma mansoni [3]): Active
- inhibition at 25 µM [11]: 21.9%
- Imax [5]: 45%
- inhibition (Schistosoma mansoni [6]): Active
- pIC50 [25]: 4.77
- Activity (HL-60): Non-Toxic
- inhibition (Schistosoma mansoni [8]): Active
